Reference: publication PMC9794833, “Ligand recognition and activation of neuromedin U receptor 2” (Nature Communications, 2022)
“And” between values parts separate entries of the source, which are not always exact repeats. Equal entries are not always repeated. Where no end group is shown, it is not given here.

Target: T1, NMU2 engineered construct (Homo sapiens, UniProt Q9GZQ4)
T1 construct: HA signal peptide (N); Flag (N); PreScission protease site (C); twin-strep (C); expressed in transfected cells
Experiment: TRUPATH assay, engineered NMU2 construct used for cryo-EM
Assay type: cell-based
Source text: To facilitate expression and purification of the NmU-25–NMU2–Gi1 complex, a hemagglutinin (HA) signal peptide followed by a flag tag was introduced at the N terminus of NMU2, while the flexible C-terminal residues of the receptor (Q356-T415) were replaced by a PreScission protease site followed by a twin-strep affinity tag (Supplementary Fig. 1a, b). […] Dominant-negative Gαi1 (DNGαi1) containing five mutations (S47C, G202T, G203A, E245A, and A326S) was used to improve the stability of the complex as these mutations lead to a preference for a nucleotide-free state, and prevent the dissociation of Gβγ from the heterotrimer[20],[21]. Over 8700 movies were collected, and the structure of the NmU-25–NMU2–Gi1 complex was determined by cryo-EM single-particle analysis at a global nominal resolution of 3.3 Å (Supplementary Fig. 2a–f, Supplementary Table 1). […]
The plasmids of Gαi1, Gβ3, and Gγ9 used for the TRUPATH assay were purchased from Addgene (TRUPATH Kit, #1000000163). […] The expression level of the receptor was measured by incubating 10 μl cells with 15 μl TBS buffer supplemented with 4% bovine serum albumin, 20% (v/v) viability staining solution7-AAD (Invitrogen, Cat#00-6993-50), and ANTI-FLAG M2-FITC antibody (Sigma, F4049; 1:100 diluted by TBS) at 4 °C for 20 min. […] Data were processed and analyzed following the method in the literature by using GraphPad Prism 8.0.

T1 sequence (Q9GZQ4 1-355 limits assumed, change not shown): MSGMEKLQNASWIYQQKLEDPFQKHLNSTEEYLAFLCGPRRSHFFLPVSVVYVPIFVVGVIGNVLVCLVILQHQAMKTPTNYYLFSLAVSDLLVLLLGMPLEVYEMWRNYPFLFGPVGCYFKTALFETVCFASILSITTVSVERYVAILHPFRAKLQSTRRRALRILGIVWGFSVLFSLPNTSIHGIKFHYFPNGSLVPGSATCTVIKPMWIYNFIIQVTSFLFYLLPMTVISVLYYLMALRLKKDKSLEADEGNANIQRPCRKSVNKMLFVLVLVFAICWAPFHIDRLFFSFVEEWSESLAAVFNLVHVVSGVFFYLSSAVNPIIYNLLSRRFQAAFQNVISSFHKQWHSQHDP

Substance: FRVDEEFQSPFASQSRGYFLFRPRN-NH2 [NmU-25]
- G protein activation (TRUPATH), dose-response point (Log [agonist] M -5): 104.095 and 133.885 and 136.246
- G protein activation (TRUPATH), dose-response point (Log [agonist] M -6): 76.3981 and 114.895 and 125.038
